Results from ChEMBL document CHEMBL2176977 (J Med Chem, 2012).
Active and inactive are the calls of the source. The calls are words filed in the database; no cut-off is given here.

Experiments:
[1] = Agonist activity at DOR in guinea pig vas deferens; assay type: functional, tissue-based; details: Cavia porcellus
[2] = Displacement of [3H]Cl-DPDPE from DOR in guinea pig brain membrane
[3] = tested on: Mus musculus; test: Antinociceptive activity in mouse assessed as tail withdrawal latency at 100 mg/kg by 55 degC warm water test; assay type: functional
[4] = target: Kappa-type opioid receptor (Cavia porcellus, UniProt P41144); test: Agonist activity at KOR in guinea pig vas deferens; assay type: functional, tissue-based
[5] = target: Mu-type opioid receptor (Cavia porcellus, UniProt P97266); test: Agonist activity at MOR in guinea pig vas deferens; assay type: functional, tissue-based
[6] = tested on: Rhesus monkey; test: Reduction in morphine dependence in withdrawn rhesus monkey model assessed as attenuation of withdrawal effects at 0.5 mg/kg; assay type: functional, organism-based; parameters: dose 0.5 mg/kg; details: Macaca mulatta
[7] = tested on: Rhesus monkey; test: Reduction in morphine dependence in withdrawn rhesus monkey model assessed as attenuation of withdrawal effects at 0.1 mg/kg; assay type: functional, organism-based; parameters: dose 0.1 mg/kg; details: Macaca mulatta

Chain of Mu-type opioid receptor (P97266 whole entry): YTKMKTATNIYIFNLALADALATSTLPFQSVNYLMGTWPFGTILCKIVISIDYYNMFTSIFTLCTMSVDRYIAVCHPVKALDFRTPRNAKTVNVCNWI
Chain of Kappa-type opioid receptor (P41144 whole entry): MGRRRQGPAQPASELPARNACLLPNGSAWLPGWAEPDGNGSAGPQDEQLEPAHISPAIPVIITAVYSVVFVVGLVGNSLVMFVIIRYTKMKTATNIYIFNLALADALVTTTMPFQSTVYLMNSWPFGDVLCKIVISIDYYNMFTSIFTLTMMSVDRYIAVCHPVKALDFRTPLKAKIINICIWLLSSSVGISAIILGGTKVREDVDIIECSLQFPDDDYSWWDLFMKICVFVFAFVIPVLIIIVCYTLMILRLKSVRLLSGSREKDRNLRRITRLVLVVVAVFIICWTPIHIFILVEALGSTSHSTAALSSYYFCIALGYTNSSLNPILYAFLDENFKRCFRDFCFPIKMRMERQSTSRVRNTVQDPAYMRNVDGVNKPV

CO[C@@]12CC[C@@]3(C[C@@H]1[C@](C)(O)C(C)(C)C)[C@H]1Cc4ccc(O)c5c4[C@@]3(CCN1CC1CC1)[C@H]2O5 [BUPRENORPHINE]
EC50 [1]: 21 nM | Ki [2]: 1.6 nM

CN1CC[C@]23c4c5ccc(O)c4O[C@H]2[C@@H](O)C=C[C@H]3[C@H]1C5 [MORPHINE]
Activity [3]: 100%

CO[C@]12CC[C@@]3(C[C@@H]1[C@](C)(O)C(C)(C)C)[C@H]1Cc4ccc(O)c5c4[C@@]3(CCN1CC1CC1)[C@H]2O5 [BUPRENORPHINE]
EC50 [4]: 21 nM | EC50 [5]: 21 nM

COC(=O)/C=C/C(=O)N[C@@]12CCC(=O)[C@@H]3Oc4c(O)ccc5c4[C@@]31CCN(CC1CC1)[C@@H]2C5
Activity [6]: inactive | Activity [7]: inactive
